# Values of other authors, collected in PubChem BioAssay AID1259409 (Chemical Carcinogenesis Research Information System (CCRIS), 2018).
# Where “and” joins values, the source holds several entries; their conditions need not be identical. Equal values may be shown once.
# Test system: rodent chemically induced tumor inhibition, incidence and multiplicity
# Assay: CCRIS tumor inhibitor studies
structure (smiles),measurement,setting,value
Cl,"tumour outcome (control, treated, inhibition, significance)","Carcinogen: 1,2-DIMETHYLHYDRAZINE, 540-73-8, Dose [Inhibitor]: 0, 5 G/L IN DRINKING WATER FOR DURATION OF STUDY BEGINNING 7 D PRIOR TO CARCINOGEN TREATMENT (STUDY DURATION: 8 MO), Route [Inhibitor]: ORAL, Species: RAT, Strain/Sex: BD6/MALE, Target Tissue: Type of Lesion: INTESTINE: TUMOR, Dose [Carcinogen]: 20 MG/KG BW 1/WK FOR 20 WK, Promoter: NONE USED","100%, 100%, 0%, not significant"
same,"tumour outcome (control, treated, inhibition, significance)","Carcinogen: BRACKEN FERN, Dose [Inhibitor]: 20 MG/G DIET/D FOR 12 MO SIMULTANEOUS WITH CARCINOGEN (STUDY DURATION: 12 MO), Route [Inhibitor]: ORAL, Species: RAT, Strain/Sex: ALBINO/?, Target Tissue: Type of Lesion: INTESTINE: TUMOR, Dose [Carcinogen]: 0.33 G IN DIET/D FOR 12 MO, Promoter: NONE USED","30/30 (100%), 16/23 (70%), 30%, p<0.01"
same,"tumour outcome (control, treated, inhibition, significance)","Carcinogen: BRACKEN FERN, Dose [Inhibitor]: 20 MG/G DIET/D FOR 12 MO SIMULTANEOUS WITH CARCINOGEN (STUDY DURATION: 12 MO), Route [Inhibitor]: ORAL, Species: RAT, Strain/Sex: ALBINO, Target Tissue: Type of Lesion: URINARY BLADDER: TUMOR, Dose [Carcinogen]: 0.33 G IN DIET/D FOR 12 MO, Promoter: NONE USED","22/30 (73%), 4/23 (17%), 77%, p<0.001"
same,"tumour outcome (control, treated, inhibition, significance)","Carcinogen: N-METHYL-N'-NITRO-N-NITROSOGUANIDINE, 70-25-7, Dose [Inhibitor]: 0, 1% IN DRINKING WATER BEGINNING 1 WK POST CARCINOGEN TREATMENT AND CONTINUING FOR STUDY DURATION (STUDY DURATION: 52 W, Route [Inhibitor]: ORAL, Species: RAT, Strain/Sex: SHR/MALE, Target Tissue: Type of Lesion: STOMACH: ADENOCARCINOMA, Dose [Carcinogen]: 40 ML OF A 25 MG/ML SOLUTION 1/2 D IN DRINKING WATER FOR 25 WK","65%, 20%, 69%, p<0.02"
same,"tumour outcome (control, treated, inhibition, significance)","Carcinogen: N-METHYL-N'-NITRO-N-NITROSOGUANIDINE, 70-25-7, Dose [Inhibitor]: 0, 1% IN DRINKING WATER BEGINNING 1 WK POST CARCINOGEN TREATMENT AND CONTINUING FOR STUDY DURATION (STUDY DURATION: 52 W, Route [Inhibitor]: ORAL, Species: RAT, Strain/Sex: WKR/MALE, Target Tissue: Type of Lesion: STOMACH: ADENOCARCINOMA, Dose [Carcinogen]: 40 ML OF A 25 MG/ML SOLUTION 1/2 D IN DRINKING WATER FOR 25 WK","25%, 20%, 20%, not calculated"
same,"tumour outcome (control, treated, inhibition, significance)","Carcinogen: N-METHYL-N'-NITRO-N-NITROSOGUANIDINE, 70-25-7, Dose [Inhibitor]: 0, 1% IN DRINKING WATER FOR 27 WK BEGINNING POST CARCINOGEN DOSE (STUDY DURATION: 52 WK), Route [Inhibitor]: ORAL, Species: RAT, Strain/Sex: WISTAR/MALE, Target Tissue: Type of Lesion: STOMACH: TUMOR, Dose [Carcinogen]: 25 UG/ML IN DRINKING WATER FOR 25 WK, Promoter: DEOXYCORTICOSTERONE ACETATE, 56-47-3","11/20 (55%), 3/18 (17%), 69%, p<0.05"
same,"tumour outcome (control, treated, inhibition, significance)","Carcinogen: N-METHYL-N'-NITRO-N-NITROSOGUANIDINE, 70-25-7, Dose [Inhibitor]: 0, 4% IN DIET FOR 25 WK BEGINNING 1 WK POST CARCINOGEN TREATMENT (STUDY DURATION: 52 WK), Route [Inhibitor]: ORAL, Species: RAT, Strain/Sex: WISTAR/MALE, Target Tissue: Type of Lesion: STOMACH: ADENOCARCINOMA, Dose [Carcinogen]: 25 UG/ML IN DRINKING WATER FOR 25 WK, Promoter: SODIUM CHLORIDE, 7647-14-5","17/19 (89%), 10/18 (56%), 37%, not significant"
same,"tumour outcome (control, treated, inhibition, significance)","Carcinogen: N-METHYL-N'-NITRO-N-NITROSOGUANIDINE, 70-25-7, Dose [Inhibitor]: 0, 8% IN DIET FOR 25 WK BEGINNING 1 WK POST CARCINOGEN TREATMENT (STUDY DURATION: 52 WK), Route [Inhibitor]: ORAL, Species: RAT, Strain/Sex: WISTAR/MALE, Target Tissue: Type of Lesion: STOMACH: ADENOCARCINOMA, Dose [Carcinogen]: 25 UG/ML IN DRINKING WATER FOR 25 WK, Promoter: SODIUM CHLORIDE, 7647-14-5","17/19 (89%), 5/19 (26%), 71%, p<0.01"
ClC(Cl)(Cl)Cl,"tumour outcome (control, treated, inhibition, significance)","Carcinogen: 1,2-DIMETHYLHYDRAZINE, 540-73-8, Dose [Inhibitor]: 0, 1.5 ML/KG BW IN CORN OIL ADMINISTERED 2 HR PRIOR TO EACH CARCINOGEN DOSE (STUDY DURATION: 8 MO), Route [Inhibitor]: GAVAGE, Species: RAT, Strain/Sex: BD6/MALE, Target Tissue: Type of Lesion: INTESTINE: TUMOR, Dose [Carcinogen]: 20 MG/KG BW 1/WK FOR 20 WK, Promoter: NONE USED","100%, 0%, 100%, not calculated"
C#C[C@]1(O)CC[C@H]2[C@@H]3CCc4cc(O)ccc4[C@H]3[C@H](OC)C[C@@]21C,"tumour outcome (control, treated, inhibition, significance)","Carcinogen: N-METHYL-N-NITROSOUREA, 684-93-5, Dose [Inhibitor]: 0, 24 UG 3/WK FOR THE DURATION OF STUDY BEGINNING 7 D PRIOR TO CARCINOGEN DOSE (STUDY DURATION: 187 D), Route [Inhibitor]: SUBCUTANEOUS, Species: RAT, Strain/Sex: SPRAGUE-DAWLEY/FEMALE, Target Tissue: Type of Lesion: MAMMARY GLAND: TUMOR, Dose [Carcinogen]: 50 MG/KG BW ONCE, Promoter: NONE USED","100%, 90%, 10%, not significant"
same,"tumour outcome (control, treated, inhibition, significance)","Carcinogen: N-METHYL-N-NITROSOUREA, 684-93-5, Dose [Inhibitor]: 10 UG DAILY STARTING SIMULTANEOUSLY WITH CARCINOGEN TREATMENT AND CONTINUING FOR DURATION OF STUDY (STUDY DURATION: 145, Route [Inhibitor]: INJECTION, Species: RAT, Strain/Sex: SPRAGUE-DAWLEY/FEMALE, Target Tissue: Type of Lesion: MAMMARY GLAND: TUMOR, Dose [Carcinogen]: 5 MG/100 G BW AT 0, 4 AND 8 WK OF STUDY, Promoter: NONE USED","86%, 54%, 37%, not calculated"
Cc1cc(=O)cc(C)o1,"tumour outcome (control, treated, inhibition, significance)","Carcinogen: BENZO[A]PYRENE, 50-32-8, Dose [Inhibitor]: 0.034 MMOL/G IN DIET FOR 5 WK (STUDY DURATION: 21 WK), Route [Inhibitor]: ORAL, Species: MOUSE, Strain/Sex: ICR/FEMALE, Target Tissue: Type of Lesion: FORESTOMACH: TUMOR, Dose [Carcinogen]: 1 MG IN 0.2 ML CORN OIL 2/WK FOR 4 WK STARTING ON D 8 OF EXPERIMENT, Promoter: NONE USED","94%, 100%, -6%, not significant"
NC(=O)NO,"tumour outcome (control, treated, inhibition, significance)","Carcinogen: 7,12-DIMETHYLBENZ[A]ANTHRACENE, 57-97-6, Dose [Inhibitor]: 0, 0.5 MG/G BW IN 0.9% SALINE ONCE 1 HR PRIOR TO FIRST PROMOTER DOSE (STUDY DURATION: 22 WK), Route [Inhibitor]: INTRAPERITONEAL, Species: MOUSE, Strain/Sex: NMRI/FEMALE, Target Tissue: Type of Lesion: SKIN: PAPILLOMA, Dose [Carcinogen]: 50 UG/G BW IN SESAME OIL","95%, 79%, 17%, not significant"
same,"tumour outcome (control, treated, inhibition, significance)","Carcinogen: 7,12-DIMETHYLBENZ[A]ANTHRACENE, 57-97-6, Dose [Inhibitor]: 0, 0.5 MG/G BW IN 0.9% SALINE ONCE 6 HR POST FIRST PROMOTER DOSE (STUDY DURATION: 22 WK), Route [Inhibitor]: INTRAPERITONEAL, Species: MOUSE, Strain/Sex: NMRI/FEMALE, Target Tissue: Type of Lesion: SKIN: PAPILLOMA, Dose [Carcinogen]: 50 UG/G BW IN SESAME OIL","95%, 65%, 32%, not calculated"
same,"tumour outcome (control, treated, inhibition, significance)","Carcinogen: 7,12-DIMETHYLBENZ[A]ANTHRACENE, 57-97-6, Dose [Inhibitor]: 0, 0.5 MG/G BW IN 0.9% SALINE ONCE 12 HR POST FIRST PROMOTER DOSE (STUDY DURATION: 22 WK), Route [Inhibitor]: INTRAPERITONEAL, Species: MOUSE, Strain/Sex: NMRI/FEMALE, Target Tissue: Type of Lesion: SKIN: PAPILLOMA, Dose [Carcinogen]: 50 UG/G BW IN SESAME OIL","95%, 60%, 37%, not calculated and 95%, 59%, 38%, not calculated"
same,"tumour outcome (control, treated, inhibition, significance)","Carcinogen: 7,12-DIMETHYLBENZ[A]ANTHRACENE, 57-97-6, Dose [Inhibitor]: 0, 0.5 MG/G BW IN 0.9% SALINE ONCE 18 HR POST FIRST PROMOTER DOSE (STUDY DURATION: 22 WK), Route [Inhibitor]: INTRAPERITONEAL, Species: MOUSE, Strain/Sex: NMRI/FEMALE, Target Tissue: Type of Lesion: SKIN: PAPILLOMA, Dose [Carcinogen]: 50 UG/G BW IN SESAME OIL","95%, 33%, 65%, not calculated and 95%, 30%, 68%, not calculated and 93%, 33%, 65%, not calculated"
same,"tumour outcome (control, treated, inhibition, significance)","Carcinogen: 7,12-DIMETHYLBENZ[A]ANTHRACENE, 57-97-6, Dose [Inhibitor]: 0, 0.5 MG/G BW IN 0.9% SALINE ONCE 24 HR POST FIRST PROMOTER DOSE (STUDY DURATION: 22 WK), Route [Inhibitor]: INTRAPERITONEAL, Species: MOUSE, Strain/Sex: NMRI/FEMALE, Target Tissue: Type of Lesion: SKIN: PAPILLOMA, Dose [Carcinogen]: 50 UG/G BW IN SESAME OIL","95%, 39%, 59%, not calculated and 95%, 45%, 53%, not calculated"
same,"tumour outcome (control, treated, inhibition, significance)","Carcinogen: 7,12-DIMETHYLBENZ[A]ANTHRACENE, 57-97-6, Dose [Inhibitor]: 0, 0.5 MG/G BW IN 0.9% SALINE ONCE 48 HR POST FIRST PROMOTER DOSE (STUDY DURATION: 22 WK), Route [Inhibitor]: INTRAPERITONEAL, Species: MOUSE, Strain/Sex: NMRI/FEMALE, Target Tissue: Type of Lesion: SKIN: PAPILLOMA, Dose [Carcinogen]: 50 UG/G BW IN SESAME OIL","95%, 94%, 1%, not significant"
